Results from US5686458A, “Quinazoline deriviates for treating peptic ulcer” (Yuhan Corporation, priority 1992, dated 1997).

What was measured:
[1] = test system: gastric secretion stimulated by histamine; assay: Anti-secretory effects when gastric secretion is stimulated by histamine (Experiment 3-1); assay type: in vivo, Sprague-Dawley male rats; conditions: intravenous; for ED50: Rattus norvegicus, read-out: ED50, gastric secretion inhibition
Experimental: In accordance with the method [see Ghosh and Shild, et al., British Journal of pharmacology 13:54-61 (1958)], anti-secretory effects of the test substances were studied in this Experiment. Sprague-Dawley male rats having a body weight of 200±20 g were divided into 3 groups, Group 1 to be administered with the compound of Example 34, Group 2 to be administered with SK&F96067[see Keeling, D. […] The rats of each Group, deprived of food for 24 hours before the experiment with free access to water, were anesthetized by intraperitoneally administering of 1.5 g/kg of 20% aqueous urethane solution and positioned on the test plate which was heated and maintained at 37° C. The anesthetized rats were cannulated at the right jugular vein for the administration of the test compounds and the left jugular vein for the administration of stimulating substances. After an abdominal incision, tubes were inserted into the esophagus and duodenum, each of which was connected with saline in a thermostat and a fraction collector. […] To the left jugular vein, histamine was administered as a gastric secretion stimulator. […] The gastric secretion inhibition (%) of the test compounds was calculated from the following equation: The gastric secretion inhibition (%) of the test compounds =(A-C)/(A-B)×100 . . . (IV) in which […]

[2] = test system: gastric secretion stimulated by pentagastrin; assay: Inhibition of gastric secretion stimulated by pentagastrin (Experiment 3-2); assay type: in vivo, Sprague-Dawley male rats; conditions: intravenous; for ED50: Rattus norvegicus
[3] = target: T1, H^+ /K^+ ATPase (proton pump), gastric vesicles (Sus scrofa, UniProt P19156); assay: Determination of H+/K+ ATPase activity, Lineweaver-Burk kinetics versus K+ (Experiment 4-2); assay type: biochemical, pig; conditions: for Competitive inhibition with K+ at the K+ binding site of proton pump: Lineweaver-Burk plot, KCl 0.1 to 30 mM
T1 construct: Gastric vesicles were prepared from pig stomach; from tissue; host or cells: pig stomach, lyophilized gastric vesicles
T1 sequence (P19156 2-1034 limits assumed): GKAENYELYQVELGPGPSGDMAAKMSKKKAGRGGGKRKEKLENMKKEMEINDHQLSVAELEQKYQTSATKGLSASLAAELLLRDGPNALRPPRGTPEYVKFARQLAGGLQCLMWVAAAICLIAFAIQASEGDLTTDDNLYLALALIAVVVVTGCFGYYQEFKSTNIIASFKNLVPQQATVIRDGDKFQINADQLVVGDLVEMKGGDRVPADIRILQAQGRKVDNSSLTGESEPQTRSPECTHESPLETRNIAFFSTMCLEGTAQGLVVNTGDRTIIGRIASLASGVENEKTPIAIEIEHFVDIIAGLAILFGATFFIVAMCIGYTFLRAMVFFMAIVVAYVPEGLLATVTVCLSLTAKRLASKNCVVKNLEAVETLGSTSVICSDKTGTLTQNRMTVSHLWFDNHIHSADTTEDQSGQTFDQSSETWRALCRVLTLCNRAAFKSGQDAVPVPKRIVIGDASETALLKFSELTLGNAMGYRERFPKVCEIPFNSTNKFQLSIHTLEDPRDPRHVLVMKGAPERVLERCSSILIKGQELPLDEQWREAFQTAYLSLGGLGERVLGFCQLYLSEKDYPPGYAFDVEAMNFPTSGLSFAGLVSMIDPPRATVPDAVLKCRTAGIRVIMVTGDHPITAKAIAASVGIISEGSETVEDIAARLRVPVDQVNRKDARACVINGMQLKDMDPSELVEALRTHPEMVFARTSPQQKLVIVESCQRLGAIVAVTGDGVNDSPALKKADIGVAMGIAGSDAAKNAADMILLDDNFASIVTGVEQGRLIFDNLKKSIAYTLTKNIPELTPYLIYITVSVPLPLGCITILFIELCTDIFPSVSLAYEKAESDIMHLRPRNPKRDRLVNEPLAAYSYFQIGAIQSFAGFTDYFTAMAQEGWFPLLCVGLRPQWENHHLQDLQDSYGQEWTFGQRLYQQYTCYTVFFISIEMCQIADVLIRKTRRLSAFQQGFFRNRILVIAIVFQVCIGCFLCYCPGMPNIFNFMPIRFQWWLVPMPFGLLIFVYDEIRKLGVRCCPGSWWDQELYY
T1 sequence (P18434 whole entry partner): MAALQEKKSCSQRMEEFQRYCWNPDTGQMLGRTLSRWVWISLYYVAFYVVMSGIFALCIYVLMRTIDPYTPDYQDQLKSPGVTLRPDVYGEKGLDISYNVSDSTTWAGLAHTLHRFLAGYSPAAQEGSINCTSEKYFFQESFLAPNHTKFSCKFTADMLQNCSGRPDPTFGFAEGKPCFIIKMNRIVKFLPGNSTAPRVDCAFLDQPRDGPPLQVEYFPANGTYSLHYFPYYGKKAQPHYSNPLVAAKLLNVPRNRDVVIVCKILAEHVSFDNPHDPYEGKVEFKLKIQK
Experimental: Gastric vesicles were prepared from pig stomach by the method described in Saccomani G., et al., J. Biol. Chem. 250, 4802-4809 (1975). The vesicles were lyophilized and kept at -70° C. The protein content was determined by the method of Lowry et al., using bovine serum albumin as standard[see Lowry, O. H., Rosebrough, N. J. and Randall, R. J., J. Biol. Chem. 193, 265-275 (1951)].
Test tubes were divided into 4 groups, each having 3 test tubes. As a control group, group 1 was added with the 10 μl of DMSO. Groups 2, 3 and 4 were administered with the compound prepared in example 34 whose final concentration are 0.17 μM, 0.33 μM and 0.67 μM, respectively. Each group was further divided into 3 small groups, in which enzymes were activated by ATP; ATP and Mg^++; and ATP, Mg^++ and K^+, respectively.
To all of the test tubes, were added 100 μl of lyophilized vesicles prepared at the concentration of 25 μg protein/ml and then 90 μl of 5 mM Pipes/Tris buffer pH 7.0. The compound prepared in Example 34 was added to each Group until the final concentration thereof became 0.17, 0.33 or 0.67 μM, respectively, They were preincubated for 15 minutes.
50 μl of ATP(3 mM) was added to each of the four Groups and the 50 μl of MgCl2 (2 mM) was added only to the 2nd and 3rd small groups of all Groups. Further, to the 3rd small groups of all Groups, were added 50 μl of KCl solution of various concentrations(from 0.1 mM to 30 mM) and then 150μl of Pipes/Tris buffer of pH 7.0. To the rest small groups, Pipes/Tris buffer of pH 7.0 was added until the volume became the same as that of the 3rd small group.
The test tube's were incubated at 37° C. for 30 minutes and then the reaction was terminated by adding 25% cold trichloroacetic acid solution. They were centrifuged by means of a microcentrifuge and the supernatant was taken up for the measurement of the released inorganic phosphate content by an automatic analyzer(CIBA CORNING, Express 550).
In accordance with the same procedures as above, except that 15 and 30 μm of omeprazole and 0.75, 1.5 and 3.0 μm of SK&F96067 were used as comparative substances, released inorganic phosphate content was measured.
The released inorganic phosphate contents of the three small groups were considered as the activity of H^+ /K^+ ATPase at each of the concentrations employed. The specific activity of H^+ /K^+ ATPase was calculated from the following equation:
Specific activity=(A-C)-(B-C) . . . (V)
A is the activity of enzyme activated by ATP, Mg^++ and , K^+ ;
B is the activity of enzyme activated by ATP and M^++ and
C is the activity of enzyme activated by ATP.
The specific activity, thus calculated, of Groups 1, 2, 3 and 4 which employed DMSO and the compound of Example 34 at 3 different concentrations were then plotted with respect to the concentration of KCl in FIG. 1 according to the method of Lineweaver-Burk, wherein .box-solid., .quadrature. and .largecircle. represent the respective concentrations of the compound of Example 34 of 0.67 μM, 0.33 μM and 0.17 μM; and .oval-solid. represents concentration of the DMSO compound. FIG. 2 depicts the Lineweaver-Burk plot of the specific activities obtained from SK&F96067, wherein .box-solid., .quadrature. and .largecircle. represent its respective concentrations of 3.0 μM, 1.5 μM, 0.75 μM; and .oval-solid. represents concentration of the DMSO compound. FIG. 3 illustrates the Lineweaver-Burk plot of the specific activities obtained from omeprazole, wherein .oval-solid. and .quadrature. represent its concentrations of 15 μM and 30 μM; and .largecircle. represents the concentration of DMSO.

| Ki ([3]; Lineweaver-Burk, versus K+, pH 7.0) [nM] | SMILES | The gastric secretion inhibition (%) ([1]; 0.1 mg/kg) | The gastric secretion inhibition (%) ([1]; 0.3 mg/kg) | The gastric secretion inhibition (%) ([1]; 1.0 mg/kg) | ED50 [1] [mg/kg] | The gastric secretion inhibition ([2]; 0.3 mg/kg) [%] | The gastric secretion inhibition ([2]; 0.5 mg/kg) [%] | The gastric secretion inhibition ([2]; 1.0 mg/kg) [%] | ED50 [2] [mg/kg] | Inhibition overcome by increasing the concentration of KCl ([3]; 15 and 30 μM) | Reaction speed in comparison with the control values ([3]; 15 and 30 μM) | Competitive inhibition with K+ at the K+ binding site of proton pump [3] | The gastric secretion inhibition (%) ([1]; 0.5 mg/kg) | The gastric secretion inhibition (%) ([1]; 3.0 mg/kg) | The gastric secretion inhibition ([2]; 3.0 mg/kg) [%] | The gastric secretion inhibition ([2]; 5.0 mg/kg) [%] |
| --- | --- | --- | --- | --- | --- | --- | --- | --- | --- | --- | --- | --- | --- | --- | --- | --- |
|  | COc1ccc2[nH]c([S+]([O-])Cc3ncc(C)c(OC)c3C)nc2c1 (stereo not drawn) [Omeprazole, omeprazole, reference compound] | 8.0 | 49.4 | 102.3 | 0.29 | 5.0 | 63.1 | 114.3 | 0.47 | not overcome by increasing the concentration of KCl | greatly reduced | did not inhibit competitively |  |  |  |  |
| 40 | COc1cccc2c(N3CCc4ccccc4C3C)nc(Nc3ccc(F)cc3C)nc12.Cl (stereo not drawn) [Example 34, 8-Methoxy-2-(4-Fluoro-2-Methyl-Phenylamino)-4-(1-Methyl-1,2,3,4-Tetrahydroisoquinoline-2-Yl)Quinazoline Hydrochloride] |  |  | 52.0 | 0.9 |  |  | 41.2 | 1.31 |  |  | inhibited competitively with K^+ | 44.4 | 76.5 | 77.0 | 110.2 |
